Results published in a melting point compilation (Tetko et al.; mined from patent text by program, amines drawn as free bases though some values may be those of a salt).

melting point | Structure (SMILES)
68 to 70 °C | COCCOCOCc1c(OC)ccc2c1Oc1c(ccc(OC)c1CO)N2C
135 to 137 °C | O=C(O)COCCc1cc2cc(Cl)ccc2n1S(=O)(=O)c1ccccc1
80 to 82 °C | COc1ccc(-c2cc(C)c(N)c(CO)c2)cn1
> 250 °C | O=C1NCN2c3ccc(Cl)cc3[C@H]3CCN4CCC[C@H]1[C@H]4[C@H]32 (racemic)
136 to 137 °C | O=C1c2cccc([N+](=O)[O-])c2C(=O)N1c1cccc2ccc(O)cc12
202 °C | COc1cc(Nc2nccc(-c3cn(S(=O)(=O)c4ccccc4)c4ccccc34)n2)cc(OC)c1OC
158 to 159 °C | COc1ccc(CNc2cc(C(c3cc(F)ccc3F)S(=O)(=O)c3ccc(F)cc3)c(Cl)cn2)cc1OC (stereo not drawn)
61.6 to 61.8 °C | CCCCCNC(=O)NCCCCCOc1cccc2sc(NC(C)=O)nc12
169 to 172 °C | Cc1nnc2ccc(-c3cccc(N(C)C(=O)C4CC4)c3)nn12
182 to 183 °C | COC(=O)c1csc(CCCc2cc3c(=O)[nH]c(N)nc3[nH]2)c1
59 to 60 °C | CCCCCCS(=O)c1c(O)cc(C)oc1=O (stereo not drawn)
107 to 110 °C | Cc1cccc(-c2n[nH]cc2-c2ccc(F)c(-c3ccc(S(N)(=O)=O)c(C(F)(F)F)c3)c2)n1
179 to 182 °C | O=C1CC(c2cccc(-n3ccnc3)c2)=Nc2ccc(-c3ccccc3F)cc2N1
118 to 121 °C | Fc1cccc(-c2nc(Nc3ccc(Cl)cc3)c3ccccc3n2)n1
165 °C | Fc1ccc(C2(Cn3nc[nH]c3=S)OC2c2ccccc2Cl)cc1F (stereo not drawn)
89 °C | CCCCCCCCCCCC(=O)N[C@@H](Cc1ccc(O)cc1)C(=O)OC
112 to 114 °C | CC(C)(C)C(=O)Oc1ccc(CCNC(=O)c2cccnc2)cc1OC(=O)C(C)(C)C
267 to 269 °C | N#Cc1cnc2cc3cc(O)ccc3cc2c1Nc1ccc(Cl)cc1Cl

melting point | Structure (SMILES)
115 to 117 °C | Cc1ccc(Cc2cnc(NCC(O)COc3cccc(CN4CCCCC4)c3)[nH]c2=O)cn1 (stereo not drawn)
226 to 228 °C | O=C(Nc1ccc(Cl)c(C(F)(F)F)c1)Nc1ccc(-c2ccc(C(F)(F)F)cc2)cc1-c1nnn[nH]1
95 to 97 °C | NCCCc1ccc(OCCC2Oc3ccccc3N(Cc3ccc(Cl)cc3)C2=O)cc1 (stereo not drawn)
177 to 178 °C | O=C(O)c1cc(S(=O)(=O)N2CCCC(OCc3ccccc3)C2)ccc1Br (stereo not drawn)
118 to 120 °C | OCCOc1cn(-c2ccc(F)cc2)c2ccc(Cl)cc12
154 to 159 °C | Clc1cc(C2CO2)cc(OCc2ccccc2)c1OCc1ccccc1 (stereo not drawn)
70 °C | CN1C(=O)CC[C@]2(C)c3ccc(-c4ccc(F)cc4C(F)(F)F)cc3CC[C@@H]12
232 to 234 °C | O=C1NC2(CCCCC2)c2ccccc21
122 to 125 °C | COc1cc(Br)c(OC)c(/C=C/C(=O)/C=C/c2cc(OC)cc(Br)c2OC)c1
169 to 172 °C | Nc1nc(-c2ccccc2)nc2c1ncc(=O)n2C1CC(O)C(CO)O1 (stereo not drawn)
124 °C | CCCc1ncc(CCCCC(=O)O)s1
142 to 144 °C | CC(C(=O)c1ccccc1)N1CCN(c2nc3nccc(-c4ccncc4)n3n2)CC1 (stereo not drawn)
156 to 160 °C | CCN(CC)C(=O)C(C#N)=Cc1cc(O)c(O)c([N+](=O)[O-])c1
128 to 129 °C | O=C(O)CCCN(C(=O)c1cccc(C(F)(F)F)c1)c1cccc2ccccc12
200 to 202 °C | COc1ccccc1Nc1c(C(=O)c2ccccc2)cnc2c(OC)cccc12
198 to 201 °C | CN(C)c1ccc(-c2cc(=O)c(C(=O)O)cn2-c2ccc(F)c(N)c2)cc1
221 to 224 °C | Cc1cc(Oc2cccnc2)c(S(C)(=O)=O)cc1C(=O)N=C(N)N
117 °C | CCOC(=O)N1CCN(Cc2nc3cccnc3n2CCO)CC1

Structure (SMILES) | melting point
Cn1ncc(N2CCNCC2)c(Cl)c1=O | 83 to 87 °C
CN1C(=O)CN(C(=O)NC2C3CC4CC(C3)CC2C4)C(c2ccccc2)c2ccccc21 (racemic) | 243 to 244 °C
